Results from patent US12509424B2, “Compound and composition as PDGF receptor kinase inhibitor” (NIPPON SHINYAKU CO., LTD., priority 2019, dated 2025).

How the values were obtained:
[1] = test system: pulmonary arterial smooth muscle cells; assay: Suppression of proliferation of pulmonary arterial smooth muscle cells (PDGF-BB stimulation, BrdU); format: cell-based; conditions: PASMC, 24 h; healthy human derived pulmonary arterial smooth muscle cells; human PDGF-BB 10 ng/mL stimulation; BrdU uptake after 1 day; test substance final concentration 3 to 10,000 nM; read-out: Human normal PASMC proliferation suppression (PDGF stimulation_IC50)
In short: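 Test compound (final 3 to 10,000 nM) was added together with BrdU and PDGF-BB (final 10 ng/mL) to healthy human pulmonary artery smooth muscle cells held a day in 0.1% FBS. Proliferation was read after 1 day as anti-BrdU-detected BrdU incorporation.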

[2] = molecular target: TEL-PDGFRβ fusion gene transfected cells (Ba/F3); assay: Suppression of proliferation of TEL-PDGFRβ fusion gene transfected Ba/F3 cells; format: cell-based, human; conditions: TEL-PDGFRβ expressing Ba/F3 cells, 72 hours, final concentration 0.1 to 10,000 nM; read-out: PDGFR β/BaF3 proliferation inhibition (IC50)
TEL-PDGFRβ fusion gene transfected cells (Ba/F3), sequence (P09619 33-1106 limits assumed, change not shown): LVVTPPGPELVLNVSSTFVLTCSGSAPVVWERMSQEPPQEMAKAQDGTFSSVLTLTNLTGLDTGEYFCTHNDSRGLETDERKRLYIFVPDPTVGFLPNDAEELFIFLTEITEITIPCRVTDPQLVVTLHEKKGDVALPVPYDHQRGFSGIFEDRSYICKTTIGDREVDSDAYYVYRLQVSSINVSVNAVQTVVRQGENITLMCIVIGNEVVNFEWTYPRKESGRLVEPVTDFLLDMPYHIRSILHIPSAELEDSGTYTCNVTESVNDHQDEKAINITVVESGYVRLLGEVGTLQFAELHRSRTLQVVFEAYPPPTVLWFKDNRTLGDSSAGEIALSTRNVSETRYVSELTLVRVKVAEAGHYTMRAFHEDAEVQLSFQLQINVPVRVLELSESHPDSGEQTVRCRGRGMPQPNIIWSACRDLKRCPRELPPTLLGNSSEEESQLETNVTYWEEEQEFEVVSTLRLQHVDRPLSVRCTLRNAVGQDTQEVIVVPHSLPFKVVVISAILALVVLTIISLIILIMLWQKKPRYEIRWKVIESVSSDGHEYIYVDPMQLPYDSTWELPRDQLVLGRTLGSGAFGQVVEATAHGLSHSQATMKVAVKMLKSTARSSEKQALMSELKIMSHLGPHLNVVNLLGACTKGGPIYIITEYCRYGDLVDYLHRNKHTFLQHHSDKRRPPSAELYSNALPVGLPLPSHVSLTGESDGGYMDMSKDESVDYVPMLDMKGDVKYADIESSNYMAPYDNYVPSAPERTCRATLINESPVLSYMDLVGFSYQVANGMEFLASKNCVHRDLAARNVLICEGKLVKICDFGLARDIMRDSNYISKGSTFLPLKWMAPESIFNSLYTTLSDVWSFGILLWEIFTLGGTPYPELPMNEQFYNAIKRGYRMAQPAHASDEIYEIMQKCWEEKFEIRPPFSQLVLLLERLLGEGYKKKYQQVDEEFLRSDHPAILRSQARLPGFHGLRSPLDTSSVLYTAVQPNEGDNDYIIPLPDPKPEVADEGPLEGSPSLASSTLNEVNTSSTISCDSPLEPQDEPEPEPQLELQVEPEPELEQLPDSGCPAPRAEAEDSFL
Description: 2. Preparation of Test Substance
4. Analysis of Measurement Results

PDGFR-β = PDGFR-β (Homo sapiens (Human), UniProt P09619); assay: PDGFR-β tyrosine kinase inhibitory action (HTRF KinEASE-TK); format: biochemical; conditions: PDGFR-β enzyme 1 ng/μL, 30° C. for 30 minutes; read-out: PDGF-β IC50
PDGFR-β, sequence (P09619 33-1106): as the sequence (P09619 33-1106 limits assumed, change not shown) above
In short: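 Recombinant PDGFR-β at 1 ng/μL final with TK substrate-3-biotin in a substrate solution containing 0.6 μM ATP; buffer 50 mM HEPES pH 7.0, 5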

[3] = molecular target: TEL-KIT fusion gene transfected cells (Ba/F3); assay: Suppression of proliferation of TEL-KIT fusion gene transfected Ba/F3 cells; conditions: read-out: KIT/BaF3 proliferation inhibition (IC50); TEL-KIT expressing Ba/F3 cells, 72 hours, final concentration 0.1 to 10,000 nM;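 note: viable cells quantified via formazan from tetrazolium reduction, inhibition scaled with 0.1% DMSO control as 0% and medium-only blank as 100%, IC50 from two-parameter logistic fit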
TEL-KIT fusion gene transfected cells (Ba/F3), sequence (P10721 26-976 limits assumed, change not shown): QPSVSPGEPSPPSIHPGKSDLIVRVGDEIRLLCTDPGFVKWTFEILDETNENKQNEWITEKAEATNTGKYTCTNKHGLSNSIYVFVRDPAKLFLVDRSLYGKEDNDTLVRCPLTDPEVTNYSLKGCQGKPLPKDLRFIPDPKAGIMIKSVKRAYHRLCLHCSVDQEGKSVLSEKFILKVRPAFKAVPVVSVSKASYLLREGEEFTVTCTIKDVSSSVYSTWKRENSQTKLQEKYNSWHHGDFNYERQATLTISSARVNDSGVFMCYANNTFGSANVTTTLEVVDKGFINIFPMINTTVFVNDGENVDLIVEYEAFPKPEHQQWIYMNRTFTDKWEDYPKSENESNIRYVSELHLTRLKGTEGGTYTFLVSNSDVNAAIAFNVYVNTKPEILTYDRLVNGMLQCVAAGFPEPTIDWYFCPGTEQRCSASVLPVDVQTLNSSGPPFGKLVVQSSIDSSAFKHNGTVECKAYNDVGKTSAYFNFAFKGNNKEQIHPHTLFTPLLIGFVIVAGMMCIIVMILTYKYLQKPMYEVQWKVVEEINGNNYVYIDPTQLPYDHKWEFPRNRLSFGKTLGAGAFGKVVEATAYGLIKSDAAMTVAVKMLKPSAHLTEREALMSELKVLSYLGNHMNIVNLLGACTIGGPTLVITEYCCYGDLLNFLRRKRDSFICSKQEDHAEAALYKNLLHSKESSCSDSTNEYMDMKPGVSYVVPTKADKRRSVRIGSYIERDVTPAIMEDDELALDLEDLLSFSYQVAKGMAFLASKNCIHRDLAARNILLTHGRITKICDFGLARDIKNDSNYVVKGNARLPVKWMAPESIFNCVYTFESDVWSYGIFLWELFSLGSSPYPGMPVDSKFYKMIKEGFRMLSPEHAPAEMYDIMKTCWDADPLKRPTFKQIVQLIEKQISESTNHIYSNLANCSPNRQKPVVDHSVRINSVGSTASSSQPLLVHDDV
Description: Fabrication of TEL-PDGFRβ and TEL-KIT Fusion Gene Transfected Cells
Subsequently, the vectors for gene transfection were introduced using a transfection reagent (FuGENE6, Promega Corporation) into packaging cells derived from a human fetal kidney cell line, PLAT-E, in the logarithmic growth phase. Since the culture supernatant of PLAT-E after the gene transfection contained virus particles for gene transfection, it was collected and used as a medium for gene transfection. The medium for gene transfection was added to a plate coated with RetroNectin and incubated, and the virus particles were allowed to adhere to the plate. Thereafter, the mouse pro-B cell line Ba/F3 in the logarithmic growth phase was seeded onto the plate and infected with the virus to fabricate cells that proliferate in a PDGFRβ or KIT dependent manner.
The test substance was prepared with dimethyl sulfoxide (DMSO) to 10 mM and diluted with DMSO so as to reach a concentration of 0.0001 to 3 mM. Furthermore, it was diluted by 100 times with distilled water.
Measurement of Suppression Action Against Proliferation of TEL-PDGFRβ or TEL-KIT Expressing Cells
The day after TEL-PDGFRβ and TEL-KIT expressing cells were seeded onto 96 well plates, the prepared test substance solution was added thereto with a final concentration being 0.1 to 10,000 nM. After 72 hours, the viable cell count was measured using the amount of formazan generated from the reduction of a tetrazolium salt compound by the mitochondrial dehydrogenase of viable cells as an indicator.
Based on the amount of formazan in each condition, the suppression rate against cell proliferation was calculated when the amounts of formazan in the negative control (0.1% DMSO solution) and Blank (medium only) were defined as 0% and 100%, respectively. Subsequently, a nonlinear regression analysis with a two parameter logistic model for the log dose and suppression rate against cell proliferation was carried out using the SAS system (SAS Institute Inc.) to estimate the IC50 value.

## Cc1c(F)cc(C(=O)N[C@H]2CCCC[C@@H]2O)cc1NC(=O)c1cnc(CC2CC2)s1 [Example 48, 2-(cyclopropylmethyl)-N-(3-fluoro-5-{[(1S,2S)-2-hydroxycyclohexyl]carbamoyl}-2-methylphenyl)-1,3-thiazole-5-carboxamide]
[1]
  IC50: 310 nM
[2]
  IC50: 16 nM
PDGFR-β
  IC50: 120 nM
[3]
  IC50: 650 nM

## O=C(N[C@H]1CCCC[C@@H]1O)c1ccc(Cl)c(C#Cc2cncc(Br)c2)c1 [Example 57, 3-[(5-bromopyridin-3-yl)ethynyl]-4-chloro-N-[(1S,2S)-2-hydroxycyclohexyl]benzamide]
[1]
  IC50: 420 nM
[2]
  IC50: 440 nM
PDGFR-β
  IC50: 51 nM
[3]
  IC50: 6900 nM

## O=C(N[C@H]1CCCC[C@@H]1O)c1ccc(Cl)c(C#Cc2cncc(-c3ccccc3)c2)c1 [Example 58, 4-chloro-N-[(1S,2S)-2-hydroxycyclohexyl]-3-[(5-phenylpyridin-3-yl)ethynyl]benzamide]
[1]
  IC50: 57 nM
[2]
  IC50: 110 nM
PDGFR-β
  IC50: 12 nM
[3]
  IC50: 1800 nM

## Cc1cncc(C#Cc2cc(C(=O)N[C@H]3CCCC[C@@H]3O)ccc2C)c1 [Example 59, N-[(1S,2S)-2-hydroxycyclohexyl]-4-methyl-3-[(5-methylpyridin-3-yl)ethynyl]benzamide]
[1]
  IC50: 93 nM
[2]
  IC50: 27 nM
PDGFR-β
  IC50: 210 nM
[3]
  IC50: 500 nM

## Cc1ccc(C(=O)N[C@H]2CCCC[C@@H]2O)cc1C#Cc1cncc(Br)c1 [Example 61, 3-[(5-bromopyridin-3-yl)ethynyl]-N-[(1S,2S)-2-hydroxycyclohexyl]-4-methylbenzamide]
[1]
  IC50: 18 nM
[2]
  IC50: 18 nM
PDGFR-β
  IC50: 41 nM
[3]
  IC50: 840 nM

## Cc1ccc(C(=O)N[C@H]2CCCC[C@@H]2O)cc1C#Cc1cncc(-c2ncccn2)c1 [Example 62, N-[(1S,2S)-2-hydroxycyclohexyl]-4-methyl-3-{[5-(pyrimidin-2-yl)pyridin-3-yl]ethynyl}benzamide]
[1]
  IC50: 34 nM
[2]
  IC50: 1.7 nM
PDGFR-β
  IC50: 6.5 nM
[3]
  IC50: 87 nM

## Cc1ccc(C(=O)N[C@H]2CCCC[C@@H]2O)cc1C#Cc1cncc(-c2cnccn2)c1 [Example 63, N-[(1S,2S)-2-hydroxycyclohexyl]-4-methyl-3-{[5-(pyrazin-2-yl)pyridin-3-yl]ethynyl}benzamide]
[1]
  IC50: 10 nM
[2]
  IC50: 0.8 nM
PDGFR-β
  IC50: 15 nM
[3]
  IC50: 240 nM

## O=C(N[C@H]1CCCC[C@@H]1O)c1ccc(Cl)c(C#Cc2cncc(-c3ncccn3)c2)c1 [Example 64, 4-chloro-N-[(1S,2S)-2-hydroxycyclohexyl]-3-{[5-(pyrimidin-2-yl)pyridin-3-yl]ethynyl}benzamide]
[1]
  IC50: 92 nM
[2]
  IC50: 5.9 nM
PDGFR-β
  IC50: 260 nM
[3]
  IC50: 230 nM

## Cc1ccc(C(=O)N[C@H]2CCCC[C@@H]2O)cc1C#Cc1ccc(N)nc1 [Example 65, 3-[(6-aminopyridin-3-yl)ethynyl]-N-[(1S,2S)-2-hydroxycyclohexyl]-4-methylbenzamide]
[1]
  IC50: 60 nM
[2]
  IC50: 14 nM
PDGFR-β
  IC50: 94 nM
[3]
  IC50: 270 nM

## Cc1ccc(C(=O)N[C@H]2CCCC[C@@H]2O)cc1C#Cc1cncc(-c2ccccn2)c1 [Example 66, 3-[([2,3′-bipyridin]-5′-yl)ethynyl]-N-[(1S,2S)-2-hydroxycyclohexyl]-4-methylbenzamide]
[1]
  IC50: 30 nM
[2]
  IC50: 2.5 nM
PDGFR-β
  IC50: 5.4 nM
[3]
  IC50: 100 nM

## Cc1ccc(C(=O)N[C@H]2CCCC[C@@H]2O)cc1C#Cc1cncc(C2CC2)c1 [Example 67, 3-[(5-cyclopropylpyridin-3-yl)ethynyl]-N-[(1S,2S)-2-hydroxycyclohexyl]-4-methylbenzamide]
[1]
  IC50: 120 nM
[2]
  IC50: 5.2 nM
PDGFR-β
  IC50: 43 nM
[3]
  IC50: 300 nM

## Cc1ccc(C(=O)N[C@H]2CCCC[C@@H]2O)cc1C#Cc1cncc(C2CC2)n1 [Example 68, 3-[(6-cyclopropylpyrazin-2-yl)ethynyl]-N-[(1S,2S)-2-hydroxycyclohexyl]-4-methylbenzamide]
[1]
  IC50: 72 nM
[2]
  IC50: 16 nM
PDGFR-β
  IC50: 80 nM
[3]
  IC50: 2000 nM

## Cc1ccc(C(=O)N[C@H]2CCCC[C@@H]2O)cc1C#Cc1cncc(-c2ccccc2F)n1 [Example 69, 3-{[6-(2-fluorophenyl)pyrazin-2-yl]ethynyl}-N-[(1S,2S)-2-hydroxycyclohexyl]-4-methylbenzamide]
[1]
  IC50: 61 nM
[2]
  IC50: 5.8 nM
PDGFR-β
  IC50: 25 nM
[3]
  IC50: 330 nM

## Cc1ccc(C(=O)N[C@H]2CCCC[C@@H]2O)cc1C#Cc1cncc(-c2cccc(F)c2)n1 [Example 70, 3-{[6-(3-fluorophenyl)pyrazin-2-yl]ethynyl}-N-[(1S,2S)-2-hydroxycyclohexyl]-4-methylbenzamide]
[1]
  IC50: 50 nM
[2]
  IC50: 1.8 nM
PDGFR-β
  IC50: 20 nM
[3]
  IC50: 300 nM

## Cc1ccc(C(=O)N[C@H]2CCCC[C@@H]2O)cc1C#Cc1cncc(-c2ccc(F)cc2)n1 [Example 71, 3-{[6-(4-fluorophenyl)pyrazin-2-yl]ethynyl}-N-[(1S,2S)-2-hydroxycyclohexyl]-4-methylbenzamide]
[1]
  IC50: 43 nM
[2]
  IC50: 6 nM
PDGFR-β
  IC50: 42 nM
[3]
  IC50: 570 nM

## Cc1ccc(C(=O)N[C@H]2CCCC[C@@H]2O)cc1Nc1ccnc(-c2cccnc2)n1 [Example 78, N-[(1S,2S)-2-hydroxycyclohexyl]-4-methyl-3-{[2-(pyridin-3-yl)pyrimidin-4-yl]amino}benzamide]
[1]
  IC50: 150 nM
[2]
  IC50: 27 nM
PDGFR-β
  IC50: 51 nM
[3]
  IC50: 570 nM

## Cc1ccc(C(=O)N[C@H]2CCCC[C@@H]2O)cc1Nc1ccnc(-c2cncc3ccccc23)n1 [Example 79, N-[(1S,2S)-2-hydroxycyclohexyl]-3-{[2-(isoquinolin-4-yl)pyrimidin-4-yl]amino}-4-methylbenzamide]
[1]
  IC50: 170 nM
[2]
  IC50: 46 nM
PDGFR-β
  IC50: 120 nM
[3]
  IC50: 2000 nM

## Cc1ccc(C(=O)N[C@@H](CO)[C@@H](O)c2ccccc2)cc1Nc1ccnc(-c2cncc3ccccc23)n1 [Example 80, N-[(1S,2S)-1,3-dihydroxy-1-phenylpropan-2-yl]-3-{[2-(isoquinolin-4-yl)pyrimidin-4-yl]amino}-4-methylbenzamide]
[1]
  IC50: 280 nM
[2]
  IC50: 80 nM
PDGFR-β
  IC50: 120 nM
[3]
  IC50: > 10000 nM

## Cc1c(F)cc(C(=O)N[C@H]2CCCC[C@@H]2O)cc1Nc1cccc(-c2cccnc2)n1 [Example 81, 3-[([2,3′-bipyridin]-6-yl)amino]-5-fluoro-N-[(1S,2S)-2-hydroxycyclohexyl]-4-methylbenzamide]
[1]
  IC50: 110 nM
[2]
  IC50: 140 nM
PDGFR-β
  IC50: 190 nM
[3]
  IC50: 3300 nM

## Cc1ccc(C(=O)N[C@H]2CCCC[C@@H]2O)cc1N[C@@H](C)c1cncc(-c2ccccc2)c1 [Example 84, N-[(1S,2S)-2-hydroxycyclohexyl]-4-methyl-3-{[(1S)-1-(5-phenylpyridin-3-yl)ethyl]amino}benzamide]
[1]
  IC50: 160 nM
[2]
  IC50: 50 nM
PDGFR-β
  IC50: 19 nM
[3]
  IC50: 500 nM

## Cc1ccc(C(=O)N[C@H]2CCCC[C@@H]2O)cc1N[C@@H](C)c1cncc(-c2cccnc2)c1 [Example 85, 3-{[(1S)-1-([3,3′-bipyridin]-5-yl)ethyl]amino}-N-[(1S,2S)-2-hydroxycyclohexyl]-4-methylbenzamide]
[1]
  IC50: 130 nM
[2]
  IC50: 19 nM
PDGFR-β
  IC50: 180 nM
[3]
  IC50: 4600 nM

## Cc1ccc(C(=O)N[C@H]2CCCC[C@@H]2O)cc1N[C@@H](C)c1cncc(C#Cc2ccccc2)c1 [Example 86, N-[(1S,2S)-2-hydroxycyclohexyl]-4-methyl-3-({(1S)-1-[5-(phenylethynyl)pyridin-3-yl]ethyl}amino)benzamide]
[1]
  IC50: 280 nM
[2]
  IC50: 42 nM
PDGFR-β
  IC50: 230 nM
[3]
  IC50: 1700 nM

## Cc1ccc(C(=O)N[C@H]2CCCC[C@@H]2O)cc1N[C@@H](C)c1cncc(-c2ccncc2)c1 [Example 87, 3-{[(1S)-1-([3,4′-bipyridin]-5-yl)ethyl]amino}-N-[(1S,2S)-2-hydroxycyclohexyl]-4-methylbenzamide]
[1]
  IC50: 350 nM
[2]
  IC50: 27 nM
PDGFR-β
  IC50: 250 nM
[3]
  IC50: 9900 nM

## Cc1ccc(C(=O)N[C@H]2CCCC[C@@H]2O)cc1N[C@@H](C)c1cncc(-c2ncccn2)c1 [Example 88, N-[(1S,2S)-2-hydroxycyclohexyl]-4-methyl-3-({(1S)-1-[5-(pyrimidin-2-yl)pyridin-3-yl]ethyl}amino)benzamide]
[1]
  IC50: 210 nM
[2]
  IC50: 43 nM
PDGFR-β
  IC50: 230 nM
[3]
  IC50: 6000 nM

## Cc1ccc(C(=O)N[C@H]2CCCC[C@@H]2O)cc1N[C@@H](C)c1cncc(-c2ccccn2)c1 [Example 89, 3-{[(1S)-1-([2,3′-bipyridin]-5′-yl)ethyl]amino}-N-[(1S,2S)-2-hydroxycyclohexyl]-4-methylbenzamide]
[1]
  IC50: 190 nM
[2]
  IC50: 20 nM
PDGFR-β
  IC50: 78 nM
[3]
  IC50: 610 nM

## C[C@H](Nc1cc(C(=O)N[C@H]2CCCC[C@@H]2O)ccc1Cl)c1cncc(-c2cccnc2)c1 [Example 90, 3-{[(1S)-1-([3,3′-bipyridin]-5-yl)ethyl]amino}-4-chloro-N-[(1S,2S)-2-hydroxycyclohexyl]benzamide]
[1]
  IC50: 360 nM
[2]
  IC50: 35 nM
PDGFR-β
  IC50: 310 nM
[3]
  IC50: 8300 nM
